Data taken from patent US9221875B2, “Amphiphilic peptides for treatment of keratitis” (Agency for Science, Technology and Research, priority 2013, dated 2015).
≈ marks a conversion by molar mass, not a printed value. Like-named read-outs stand apart in the source and are kept apart here. Square brackets hold non-standard residues; d marks the D form. Peptide text beside a SMILES is read from it.

Experiments:
[1] = tested on: 5 microorganisms tested (S. epidermidis, S. aureus, E. coli, P. aeruginosa, C. albicans); test: Mean MIC over the panel and selectivity index (Example 1); assay type: cell-based
Protocol: Red blood cells suspension incubated with PBS was used as negative control.

[2] = tested on: LPS-stimulated NO production in NR8383 rat macrophage cell line; test: Endotoxin neutralization assay (Griess nitrite); assay type: cell-based; conditions: 125 mg L^−1 peptide, 100 ng mL^−1 LPS, 18 h
Protocol: Untreated cells and cells that were stimulated with LPS alone served as the […] controls, respectively. The amount of NO produced was estimated by quantifying the concentration of the stable NO metabolite nitrite in the isolated supernatant fractions using the Griess reagent (1% sulphanilamide, 0.1% N-1-napthylethylenediamine dihydrochloride, 5% phosphoric acid) according to the manufacturer's protocol. The absorbance was measured at 540 nm and nitrite concentrations were determined using a standard reference curve prepared from known concentrations of NaNO2 solutions.

in vitro [3] = assay type: cell-based; conditions: human
Protocol: (§1) HeLa, HDF and NR8383 cells were respectively seeded at a densities of 1×10^4, 1×10^4 and 4×10^4 cells per well of a 96-well plate. Following overnight incubation, the cells were treated with 3.9 to 500 mg L^−1 of (IRIK)3-NH2 (SEQ ID NO: 21) and (VRVK)3-NH2 (SEQ ID NO: 20) for 24 h. For the adherent HeLa and HDF cell lines, the incubation media in each well were replaced with 100 μL of growth media and 10 μL of MTT solution (5 mg·ml^−1 in PBS). The cells were further incubated for 4 h at 37° C. according to the manufacturer's directions. Resultant formazan crystals formed in each well were solubilized using 150 μL of DMSO upon removal of growth media. A 100 μL aliquot from each well was then transferred to a new 96-well plate for determination of absorbance using a microplate spectrophotometer at wavelengths of 550 nm and 690 nm. Relative cell viability was expressed as [(A550−A690)sample/(A550−A690)control]×100%.

in vitro [4] = assay type: cell-based; conditions: rat, NR8383 macrophage cells
Protocol: as §1
For the semi-adherent NR8383 cells, 20 μL of […]-BLUE® reagent was added into each well after treatment and the plate was incubated for a further 4 h. The fluorescence intensity readings of the wells were determined at excitation wavelength of 560 nm and emission wavelength of 590 nm using a microplate reader. […]

S. epidermidis [5] = conditions: 18 h
S. aureus [6] = conditions: 18 h
E. coli [7] = conditions: 18 h
P. aeruginosa [8] = conditions: 18 h
C. albicans [9] = conditions: 42 h
rabbit red blood cells = assay type: cell-based; conditions: red cells of rabbit, 1 h
trypsin and proteinase K = assay type: in vitro ADME
Protocol: One of the major factors limiting the clinical utility of AMPs lies in their instability to rapid degradation by proteases which are present abundantly in biological fluids and/or secreted by microorganisms. In order to evaluate the proteolytic stability of the designed β-sheet forming peptides, the D- and L-isoforms of the n=2 peptide sequence (IK8-all D or IK8-all L, respectively) were treated with the broad spectrum serine proteases, trypsin and proteinase K, for 6 h and evaluated their antimicrobial activities against S. aureus, E. coli and P. aeruginosa. […] The structural integrity of synthetic peptides following treatment with both proteases was also evaluated using MALDI-TOF mass spectroscopy. […] The cleavage sites of both enzymes for the IK8-all L peptide are illustrated in FIG. 19a with the mass spectra peaks assigned to the major fragments.

[10] = tested on: five microorganisms tested (S. epidermidis, S. aureus, E. coli, P. aeruginosa, C. albicans); assay type: cell-based; conditions: 18 h
Protocol: After 18 h treatment of microorganisms with various concentrations of peptide (0.5×MIC, MIC and 2×MIC), the respective samples were subjected to a series of ten-fold dilutions and plated onto LB agar plates. The plates were then incubated overnight and counted for colony-forming units. A sample containing microbes treated with 10% (by volume) water was used as a control. Results are expressed as Log(CFU/mL) and as % Kill=[(cell count of control−survivor count of peptide-treated microbes)/cell count of control]×100.

[11] = tested on: S. aureus and P. aeruginosa; test: FE-SEM analysis of treated bacteria (Example 2); assay type: cell-based, Staphylococcus aureus, Pseudomonas aeruginosa; conditions: 125 mg L^−1, 2 h
Protocol: S. aureus and P. aeruginosa suspensions at ˜3×10^8 CFU mL^−1 (100 μL) were separately incubated with an equal volume of broth containing final concentrations of 10% (by volume) of HPLC water or 125 mg L^−1 of IK8-all D in a 96 well-plate for 2 h. Eight replicates of each condition was pooled into a microfuge tube, pelleted down at 4000 rpm for 5 min, and rinsed twice with PBS. The samples were then fixed with 4% formaldehyde at room temperature for 20 min, followed by rinsing with deionized water. Dehydration of the cells was performed using a series of graded ethanol solutions (35, 50, 75, 90, 95 and 100%). The samples were mounted on a copper tape, allowed to air-dry and sputter coated with platinum for imaging using a FE-SEM setup (JEOL JSM-7400F, Japan).

E. coli [12] = assay type: cell-based, Escherichia coli; conditions: end of the experiment (up to 20 passages)
S. aureus [13] = assay type: cell-based, Staphylococcus aureus; conditions: passage 20
P. aeruginosa [14] = test: MBC against clinical isolates; assay type: cell-based; conditions: clinical isolate
C. neoformans = test: MBC against clinical isolates; assay type: cell-based; conditions: clinical isolate
[15] = tested on: clinically isolated drug resistant microorganisms; test: MBC comparison over clinical isolates; assay type: cell-based; conditions: antibacterial activities
[16] = tested on: intracellular S. aureus in RAW264.7 mouse macrophages; assay type: cell-based, Staphylococcus aureus; conditions: intracellular in RAW264.7 mouse macrophages, 8 h
Protocol: RAW264.7 cells were seeded at a density of 4×10^5 per well of a 12-well plate. Following an overnight incubation, the cells were infected for 1 h with 13.3 μL of processed bacteria (3.0×10^8 CFU mL^−1) to achieve a 10:1 multiplicity of infection. The cells were then rinsed twice with 1×PBS and incubated with 1 mL of fresh media containing 50 μg mL^−1 gentamicin for 45 min to eliminate extracellular bacteria. The media in each well were removed and the infected cells were incubated with fresh media containing 10% (by volume) water or various concentrations of IK8-all D (2, 3.9, 7.8, 15.6 and 31.3 mg L^−1) for up to 4 and 8 h. At the respective time points, the infected cells were trypsinized, rinsed twice with PBS and lyzed with 800 μL of sterile water with incubation at room temperature for 10 min, followed by 5 min sonication. The intracellular bacteria count was determined by plating serially diluted cultures onto LB agar and enumerated after 24 h.

in vitro [17] = assay type: cell-based; conditions: mouse, RAW264.7 macrophage cells
Protocol: RAW264.7 and WI-38 cells were respectively seeded at a density of 1.5×10^4 and 1×10^4 per well of a 96-well plate. Following overnight incubation, the cells were treated with 1.0 to 125 mg L^−1 of IK8-all D for 48 h. Subsequently, the incubation media in each well were replaced with 100 μL of growth media and 10 μL of MTT solution (5 mg·ml^−1 in PBS) and the cells were incubated for 4 h at 37° C. according to the manufacturer's directions. Resultant formazan crystals formed in each well were solubilized using 150 μL of DMSO upon removal of growth media. A 100 μL aliquot from each well was then transferred to a new 96-well plate for determination of absorbance using a microplate spectrophotometer at wavelengths of 550 nm and 690 nm. Relative cell viability was expressed as [(A550−A690)sample/(A550−A690)control]×100%.

S. epidermidis [18] = conditions: 18 h; remark: listed apart in the source
S. aureus [19] = conditions: 18 h; remark: listed apart in the source
E. coli [20] = conditions: 18 h; remark: listed apart in the source
P. aeruginosa [21] = conditions: 18 h; remark: listed apart in the source
C. albicans [22] = tested on: C. albicans
[23] = tested on: Methicillin-resistant S. aureus; conditions: clinical isolate
[24] = tested on: Vancomycin-resistant Enterococci; conditions: clinical isolate
[25] = tested on: clinically isolated Mycobacterium tuberculosis
[26] = tested on: 5 microorganisms tested (S. epidermidis, S. aureus, E. coli, P. aeruginosa, C. albicans); test: Mean MIC over the panel and selectivity index (Example 2)

Q: Which “GM, geometric mean of MIC values for the 5 microorganisms tested” value (“GM, geometric mean of MIC values” below) [1] does the source give for `CC[C@H](C)[C@H](N)C(=O)N[C@@H](CCCNC(=N)N)C(=O)N[C@H](C(=O)N[C@@H](CCCCN)C(=O)N[C@H](C(=O)N[C@@H](CCCNC(=N)N)C(=O)N[C@H](C(=O)N[C@@H](CCCCN)C(=O)N[C@H](C(=O)N[C@@H](CCCNC(=N)N)C(=O)N[C@H](C(=O)N[C@@H](CCCCN)C(N)=O)[C@@H](C)CC)[C@@H](C)CC)[C@@H](C)CC)[C@@H](C)CC)[C@@H](C)CC` [(IRIK)3-NH2] (H-IRIKIRIKIRIK-NH2; N-terminus assumed) here?
A: 162.7 µg/mL

Q: And the “nitrite concentration, LPS-stimulated NO production” value [2]?
A: reduced to the control level

Q: What about the viability at 24 h, 125 µg/mL (in vitro [3]; HDF dermal fibroblast cells) of the same molecule?
A: > 80%

Q: What about the viability at 24 h, 125 µg/mL (in vitro [4]) of the same molecule?
A: > 80%

Q: And the “MIC S. epidermidis” value (S. epidermidis [5])?
A: 1.0 µg/mL (≈ 0.646 µM)

Q: And the “MIC S. aureus” value (S. aureus [6])?
A: 62.5 µg/mL (≈ 40.3 µM)

Q: And the “MIC E. coli” value (E. coli [7])?
A: 125 µg/mL (≈ 80.7 µM)

Q: And the “MIC P. aeruginosa” value (P. aeruginosa [8])?
A: 500 µg/mL (≈ 323 µM)

Q: And the “MIC C. albicans” value (C. albicans [9])?
A: 125 µg/mL (≈ 80.7 µM)

Q: Which “GM, geometric mean of MIC values” value [1] does the source give for `CC(C)[C@H](N)C(=O)N[C@@H](CCCNC(=N)N)C(=O)N[C@H](C(=O)N[C@@H](CCCCN)C(=O)N[C@H](C(=O)N[C@@H](CCCNC(=N)N)C(=O)N[C@H](C(=O)N[C@@H](CCCCN)C(=O)N[C@H](C(=O)N[C@@H](CCCNC(=N)N)C(=O)N[C@H](C(=O)N[C@@H](CCCCN)C(N)=O)C(C)C)C(C)C)C(C)C)C(C)C)C(C)C` [(VRVK)3-NH2] (H-VRVKVRVKVRVK-NH2; N-terminus assumed) here?
A: 34.6 µg/mL

Q: What about the viability at 24 h, 250 mg/L (in vitro [3]) of the same molecule?
A: 30%

Q: What about the viability at 24 h, 250 µg/mL (in vitro [3]; HDF dermal fibroblast cells) of the same molecule?
A: > 53%

Q: And the viability at 24 h, 250 µg/mL (in vitro [4])?
A: > 53%

Q: And the “MIC S. epidermidis” value (S. epidermidis [5])?
A: 1.0 µg/mL (≈ 0.683 µM)

Q: And the “MIC S. aureus” value (S. aureus [6])?
A: 62.5 µg/mL (≈ 42.7 µM)

Q: And the “MIC E. coli” value (E. coli [7])?
A: 15.6 µg/mL (≈ 10.6 µM)

Q: And the “MIC P. aeruginosa” value (P. aeruginosa [8])?
A: 62.5 µg/mL (≈ 42.7 µM)

Q: And the “MIC C. albicans” value (C. albicans [9])?
A: 31.3 µg/mL (≈ 21.4 µM)

Q: For `CC[C@@H](C)[C@@H](N)C(=O)N[C@H](CCCNC(=N)N)C(=O)N[C@@H](C(=O)N[C@H](CCCCN)C(=O)N[C@@H](C(=O)N[C@H](CCCNC(=N)N)C(=O)N[C@@H](C(=O)N[C@H](CCCCN)C(N)=O)[C@H](C)CC)[C@H](C)CC)[C@H](C)CC` [IK8-all D, irikirik-NH2] (H-[dI][dR][dI][dK][dI][dR][dI][dK]-NH2; N-terminus assumed), which “HC10, haemolysis concentration 10%: lowest peptide concentration that induces ≧10% haemolysis” value (rabbit red blood cells) is on record?
A: 1750 mg/L

Q: What about the “antimicrobial activity after protease treatment” value (trypsin and proteinase K) of the same molecule?
A: retained its antibacterial activities

Q: And the “structural integrity after protease treatment, MALDI-TOF MS” value (trypsin and proteinase K)?
A: remained intact

Q: What about the killing efficiencies [10] of the same molecule?
A: > 99.9%

Q: What about the “log reductions in colony counts” value [10]; 2 of the same molecule?
A: more than 3 log

Q: What about the “surface morphology under FE-SEM” value [11] of the same molecule?
A: significant membrane damage and corrugation

Q: What about the MICn/MIC0 (E. coli [12]) of the same molecule?
A: 1

Q: What about the “MICn/MIC0, fold increase in MIC” value (S. aureus [13]) of the same molecule?
A: 1

Q: What about the “MBC P. aeruginosa” value (P. aeruginosa [14]) of the same molecule?
A: 15.6 µg/mL (≈ 15 µM)

Q: What about the “MBC C. neoformans” value (C. neoformans) of the same molecule?
A: 7.8 µg/mL (≈ 7.51 µM)

Q: What about the “folds reduction in MBCs compared with the L-enantiomer” value [15] of the same molecule?
A: 4-8 folds

Q: And the “log reductions in intracellular S. aureus colony counts compared to the control” value [16]?
A: 1.2-1.5 log

Q: And the viability at 48 h (in vitro [17])?
A: > 80%

Q: What about the “MIC S. epidermidis” value (S. epidermidis [18]) of the same molecule?
A: 2.0 µg/mL (≈ 1.93 µM)

Q: And the “MIC S. aureus” value (S. aureus [19])?
A: 3.9 µg/mL (≈ 3.76 µM)

Q: And the “MIC E. coli” value (E. coli [20])?
A: 3.9 µg/mL (≈ 3.76 µM)

Q: What about the “MIC P aeruginosa” value (P. aeruginosa [21]) of the same molecule?
A: 7.8 µg/mL (≈ 7.51 µM)

Q: What about the “MIC C. albicans” value (C. albicans [22]) of the same molecule?
A: 3.9 µg/mL (≈ 3.76 µM)

Q: What about the “MBC Methicillin-resistant S. aureus” value [23] of the same molecule?
A: 3.9 µg/mL (≈ 3.76 µM)

Q: And the “MBC A. baumanni” value (A. baumanni)?
A: 31.3 µg/mL (≈ 30.1 µM)

Q: And the “MBC Vancomycin-resistant Enterococci” value [24]?
A: 3.9 µg/mL (≈ 3.76 µM)

Q: What about the “MIC M. tuberculosis” value ([25]; strain number 1140) of the same molecule?
A: 15.6 µg/mL (≈ 15 µM)

Q: And the “MIC M. tuberculosis” value ([25]; strain number 1146)?
A: 15.6 µg/mL (≈ 15 µM)

Q: And the “GM, geometric mean of MIC values” value [26]?
A: 4.3 µg/mL

Q: And the “fold reduction in MIC values compared with the L-enantiomer” value ([26]; against the various bacteria)?
A: 2-16 fold
